Test results reported in publication PMC4176481, “Influence of D-glutamine and D-glutamic acid sequences in optical peptide probes targeted against the cholecystokinin-2/gastrin-receptor on binding affinity, specificity and pharmacokinetic properties” (EJNMMI Research, 2013).
Starred links: 1 amine or outer side, 2 acyl side, 3 side chain; linkers in the order of their positions; H or OH if unused. Positions of bridges follow the written chain, without caps; N, C: chain ends. Non-standard residues stand in square brackets, D forms with d. Residues, ends and D or L forms follow the SMILES beside them. Chains are numbered I, II in the order given. *: point of attachment. X1 = CC(C)(C)c1cc(C=CC=CC=C2N(CCCS(=O)(=O)O)c3ccc(S(=O)(=O)O)cc3C2(C)CCCC(=O)*)c2cc3c(cc2[o+]1)N(CCCS(=O)(=O)O)C(C)(C)C=C3CS(=O)(=O)[O-]; Nle = CCCC[C@H](N)C(=O)O; X2 = O=C(C[*:1])[*:2]

How the values were obtained:
[1] = target: T1, CCK2R (A431/CCK2R cells) (Homo sapiens, UniProt P32239); design: method as in PMID 23591397; conditions: earlier probe with a spacer of six uncharged D-glutamines; read-out: dissociation constant Kd; cited from earlier work
T1 construct: expressed in transfected cells; host or cells: A431 human epidermoid carcinoma cells, stably transfected (gift from Dr. Luigi Aloj)
T1 sequence (P32239 1-447): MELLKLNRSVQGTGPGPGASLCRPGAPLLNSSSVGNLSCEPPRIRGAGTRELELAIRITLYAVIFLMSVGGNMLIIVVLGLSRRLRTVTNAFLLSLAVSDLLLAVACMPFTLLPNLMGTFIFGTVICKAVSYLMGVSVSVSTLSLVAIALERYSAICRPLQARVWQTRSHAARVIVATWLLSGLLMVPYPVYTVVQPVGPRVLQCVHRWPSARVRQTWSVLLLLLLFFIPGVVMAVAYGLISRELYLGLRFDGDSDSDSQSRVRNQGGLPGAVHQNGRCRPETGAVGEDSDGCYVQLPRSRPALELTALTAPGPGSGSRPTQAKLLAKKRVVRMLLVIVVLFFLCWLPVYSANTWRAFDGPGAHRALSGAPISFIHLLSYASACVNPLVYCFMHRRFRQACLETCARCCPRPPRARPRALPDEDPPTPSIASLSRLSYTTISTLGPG

[2] = system: A431/WT tumours; assay: In vivo NIRF imaging of CCK2R-negative xenografts; design: species or system athymic nude mice; conditions: 1 to 8 h p.i.; i.v. 108 nmol/kg QE or 54 nmol/kg bivQ; n = 5
From the text: Female athymic nude mice (Hsd:Athymic Nude-Foxn1^nu nu/nu; Harlan Laboratories, Eystrup, Germany) were housed under standard conditions with water and food ad libitum. Mice were maintained under a low-pheophorbide diet (C 1039; Altromin, Lage, Germany) to reduce tissue autofluorescence. All procedures were approved by the regional animal committee (reg. number 02-007/10) and were in accordance with international guidelines on the ethical use of animals. Animals were anesthetized with 2% isoflurane during all procedures. […]
Xenografts were inoculated in athymic nude mice (Hsd:Athymic Nude-Foxn1^nu nu/nu; Harlan Laboratories) 10 to 15 days before imaging by subcutaneous injection of 0.5 million A431/CCK2R (left flank) and A431/WT cells (right flank) dispersed in Matrigel™ (BD Biosciences). For in vivo fluorescence imaging, 108 nmol/kg QE or 54 nmol/kg bivQ probe was injected intravenously (i.v.), according to the results of a dose determination experiment, which was set up to identify the optimal relation between sensitivity and contrast (Additional file 1). […] Another group received 108 nmol/kg of the unconjugated fluorophore DY-754 to determine dye-mediated non-specific tumour uptake, and one group remained untreated to control for probe-unrelated NIR fluorescence in the animals. […]

[3] = system: A431/CCK2R cells; assay: Target binding and internalization in vitro, fluorescence microscopy; type: cell-based, human; conditions: 0.5 μM, 30 min
Experimental: (§1) Binding of the optical probes QE and bivQ to CCK2R-expressing (A431/CCK2R) and CCK2R-non-expressing (A431/WT) cells was investigated after incubation with 0.5 μM of each probe in culture medium for 30 min at 4°C to observe active surface receptor binding and at 37°C to check for internalization behaviour, which is mandatory for in vivo signal amplification. Incubation with 0.5 μM of the fluorochrome DY-754 should determine the role of the interaction of the peptide with the CCK2R for probe uptake. Probe incubation was followed by cell membrane staining with wheat germ agglutinin-Alexa Fluor®-555 (WGA-555, Invitrogen, Carlsbad, CA, USA), fixation in 4% (v/v) paraformaldehyde on ice and mounting in PermaFluor® Mounting medium (Thermo Fisher, Waltham, MA, USA), containing 0.2 μg/mL Hoechst 33258 (Applichem, Darmstadt, Germany) to stain cell nuclei. Fluorescence microscopy was carried out with the digital microscope EVOSfl (AMG, Bothell, WA, USA) equipped with three filter cubes for visualization of Hoechst (excitation 335 to 379 nm, emission 417 to 477 nm), WGA-555 (excitation 511 to 551 nm, emission 573 to 613 nm) and DY-754 (excitation 690 to 730 nm, emission 752 to 798 nm).

[4] = system: A431/WT cells; assay: Target binding in vitro, fluorescence microscopy, CCK2R-non-expressing cells; type: cell-based, human; conditions: 0.5 μM, 30 min
Experimental: as §1

[5] = Metabolic (protease) stability in mouse liver homogenates; type: in vitro ADME; conditions: mouse liver homogenate, incubation up to 180 min, HPLC with UV/VIS detection at 750 nm, three parallels
Experimental: Supplementary file 2191-219X-3-75-S3.pptx: Additional file 3: Metabolic (protease) stability of QE and bivQ against the degradation by mouse liver homogenates. The HPLC peak of non-degraded QE at 9.7 min elution time (a-I) decreased after 180 min of probe incubation in liver homogenate, whereas a second peak, representing degradation products, appeared at 7.2 min of elution (a-II). Degradation curves of (b) QE and (c) bivQ. […] Peaks were detected at 750 nm with a UV/VIS detector. Data represent three parallels. Click here for file
Supplementary file 2191-219X-3-75-S4.pptx: Additional file 4: Metabolic stability of the optical CCK2R targeted minigastrin dQ-MG-754 [[20]]. Degradation of dQ-MG-754 for comparison with QE and bivQ. […] Probe signal was detected at 750 nm with a UV/VIS detector. Data represent three parallels. Click here for file

[6] = system: A431/CCK2R tumours; assay: In vivo NIRF imaging of CCK2R-expressing xenografts; design: species or system athymic nude mice
From the text: Female athymic nude mice (Hsd:Athymic Nude-Foxn1^nu nu/nu; Harlan Laboratories, Eystrup, Germany) were housed under standard conditions with water and food ad libitum. Mice were maintained under a low-pheophorbide diet (C 1039; Altromin, Lage, Germany) to reduce tissue autofluorescence. All procedures were approved by the regional animal committee (reg. number 02-007/10) and were in accordance with international guidelines on the ethical use of animals. Animals were anesthetized with 2% isoflurane during all procedures. To implement subcutaneous xenografts, 5 × 10^5 CCK2R transfected (A431/CCK2R) and non-transfected wild-type cells (A431/WT) were dispensed in Matrigel™ (BD Biosciences, Heidelberg, Germany) and injected into the right (A431/CCK2R cells) and left (A431/WT cells) flank of 8- to 12-week-old animals 10 to 15 days before in vivo imaging.
Xenografts were inoculated in athymic nude mice (Hsd:Athymic Nude-Foxn1^nu nu/nu; Harlan Laboratories) 10 to 15 days before imaging by subcutaneous injection of 0.5 million A431/CCK2R […] and A431/WT cells (right flank) dispersed in Matrigel™ (BD Biosciences). For in vivo fluorescence imaging, 108 nmol/kg QE or 54 nmol/kg bivQ probe was injected intravenously (i.v.), according to the results of a dose determination experiment, which was set up to identify the optimal relation between sensitivity and contrast (Additional file 1). […] Another group received 108 nmol/kg of the unconjugated fluorophore DY-754 to determine dye-mediated non-specific tumour uptake, and one group remained untreated to control for probe-unrelated NIR fluorescence in the animals. At defined time points between 0 and 8 h p.i., NIRF fluorescence images (excitation 615 to 665 nm, emission >750 nm) and white light images of the animals were obtained. By means of spectral unmixing, tissue autofluorescence was removed from the images. Subsequently, fluorescence intensities (FI) were analysed over the time in regions of interest (ROIs) that were placed upon the tumours and non-tumour tissue. As a measure of contrast between tumour and non-tumour fluorescence, tumour/background ratios (TBRs) were calculated as a quotient of FItumour/FInon-tumour.

[7] = system: A431/CCK2R and A431/WT tumours; assay: Ex vivo intratumoural probe distribution in cryosections (Odyssey scanner); design: species or system athymic nude mice; conditions: acetone-fixed 30-μm cryosections of explanted xenografts, three specimens/group
From the text: To determine intratumoural distribution of the peptide probes ex vivo, acetone-fixed 30-μm cryosections of explanted xenografts were scanned mesoscopically in the near-infrared scanner Odyssey® (LI-COR, Bad Homburg, Germany) at 700 nm (autofluorescence) and 800 nm (probe fluorescence).

[8] = Biodistribution, ex vivo NIRF of organs and xenografts 8 h p.i.; type: in vivo, athymic nude mice
Experimental: We investigated the biodistribution of the optical probes and of the fluorochrome DY-754 to determine the influence of the dye on tumour and organ accumulation. Therefore, 8 h p.i., ex vivo NIRF fluorescence images of the organs and the two xenografts (A431/CCK2R and A431/WT) per mouse were taken in combination with the placement of ROIs on these organs to assess semiquantitative fluorescence intensities.

Compound	Kd [1]	TBR, A431/WT tumours [2]	probe localisation in A431/CCK2R cells at 4°C ([3]; 4°C)	binding and internalization in A431/CCK2R cells at 37°C ([3]; 37°C, n = 3)	binding to A431/WT cells (no CCK2R expression) [4]	metabolic stability against degradation by liver proteases [5]	TBR, A431/CCK2R xenografts, under competition ([6]; 8 h p.i., co-injection of 10-fold molar excess of non-fluorescent minigastrin, mean ± SD, n = 5)	tumour/background ratio (TBR), A431/CCK2R xenografts ([6]; 8 h p.i., i.v. 108 nmol/kg QE or 54 nmol/kg bivQ, mean ± SD, n = 5)	TBR, CCK2R-expressing xenografts (summary bound) ([6]; high-contrast imaging, discussion summary)	intratumoural fluorescence at 800 nm in tumour sections [7]	fluorescence accumulation in stomach, small intestine and colon ([8]; n = 5)	uptake into A431/WT tumours (biodistribution) ([8]; n = 5, comparably high for DY-754 (p > 0.05))
dQ-MG-754: previously published optical minigastrin probe with a spacer of six uncharged D-glutamines and DY-754 (ref 20) (QQQQQQAYGWMDF; not fully specified; Synthetic minigastrin analogue; Residues 1-6 are D-Gln (the text states a spacer of six D-glutamines))	1.8 ± 0.6 nM											
CCCC[C@H](NC(=O)[C@H](Cc1c[nH]c2ccccc12)NC(=O)CNC(=O)[C@H](Cc1ccc(O)cc1)NC(=O)[C@H](C)NC(=O)[C@@H](CCC(N)=O)NC(=O)[C@@H](CCC(N)=O)NC(=O)[C@@H](CCC(N)=O)NC(=O)CSC[C@H](NC(=O)CCCC1(C)C(=CC=CC=Cc2cc(C(C)(C)C)[o+]c3cc4c(cc23)C(CS(=O)(=O)[O-])=CC(C)(C)N4CCCS(=O)(=O)O)N(CCCS(=O)(=O)O)c2ccc(S(=O)(=O)O)cc21)C(=O)N[C@H](CCC(N)=O)C(=O)N[C@H](CCC(N)=O)C(=O)N[C@H](CCC(N)=O)C(=O)N[C@@H](C)C(=O)N[C@@H](Cc1ccc(O)cc1)C(=O)NCC(=O)N[C@@H](Cc1c[nH]c2ccccc12)C(=O)N[C@@H](CCCC)C(=O)N[C@@H](CC(=O)O)C(=O)N[C@@H](Cc1ccccc1)C(N)=O)C(=O)N[C@@H](CC(=O)O)C(=O)N[C@@H](Cc1ccccc1)C(N)=O (stereo partly drawn) [bivQ] (I: X1-C[dQ][dQ][dQ]AYGW[Nle]DF-NH2 / II: [dQ][dQ][dQ]AYGW[Nle]DF-NH2; linker I:1-II:N via X2)		< 2	restricted to the cell membrane	binding and internalization	no binding	only a limited metabolic stability	4.0 ± 1.2	6.3 ± 1.4	> 6	only in the outer A431/CCK2R tumour regions	no fluorescence accumulation	weak uptake
